Laboratory results taken from ChEMBL document CHEMBL5291721, “A preclinical secondary pharmacology resource illuminates target-adverse drug reaction associations of marketed drugs” (Nat Commun, 2023).

What was measured:
Acetylcholinesterase = Acetylcholinesterase (Homo sapiens, UniProt P22303); format: functional
[1] = target: T1, Alpha-1A adrenergic receptor (Homo sapiens, UniProt P35348); format: functional, cell-based
T1 sequence (P35348 whole entry): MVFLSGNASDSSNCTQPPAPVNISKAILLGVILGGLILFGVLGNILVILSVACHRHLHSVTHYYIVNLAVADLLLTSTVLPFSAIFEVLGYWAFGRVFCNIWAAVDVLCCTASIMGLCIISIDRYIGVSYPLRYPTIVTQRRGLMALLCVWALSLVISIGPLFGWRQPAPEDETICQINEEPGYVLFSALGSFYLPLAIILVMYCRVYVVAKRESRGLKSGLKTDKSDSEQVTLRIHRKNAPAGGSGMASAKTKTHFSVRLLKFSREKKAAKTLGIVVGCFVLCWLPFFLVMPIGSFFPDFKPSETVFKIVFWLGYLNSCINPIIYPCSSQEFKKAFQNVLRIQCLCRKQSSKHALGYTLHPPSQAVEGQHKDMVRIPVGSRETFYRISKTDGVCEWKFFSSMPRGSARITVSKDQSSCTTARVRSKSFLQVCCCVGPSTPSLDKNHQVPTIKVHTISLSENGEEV

D(1A) dopamine receptor = D(1A) dopamine receptor (Homo sapiens, UniProt P21728)
Sequence of D(1A) dopamine receptor (P21728 whole entry): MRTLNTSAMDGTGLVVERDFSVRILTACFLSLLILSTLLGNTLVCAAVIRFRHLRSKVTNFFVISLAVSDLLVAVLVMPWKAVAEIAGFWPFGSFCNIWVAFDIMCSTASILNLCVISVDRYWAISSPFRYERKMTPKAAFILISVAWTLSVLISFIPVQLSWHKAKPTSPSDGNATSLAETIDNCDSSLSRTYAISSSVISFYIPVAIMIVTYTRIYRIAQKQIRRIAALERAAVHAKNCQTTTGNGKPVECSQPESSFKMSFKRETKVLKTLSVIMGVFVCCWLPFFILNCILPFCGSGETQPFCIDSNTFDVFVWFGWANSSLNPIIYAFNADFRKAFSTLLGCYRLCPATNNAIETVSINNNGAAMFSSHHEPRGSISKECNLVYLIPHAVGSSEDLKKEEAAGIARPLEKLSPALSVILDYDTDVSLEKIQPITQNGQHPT

D(3) dopamine receptor = D(3) dopamine receptor (Homo sapiens, UniProt P35462)
Sequence of D(3) dopamine receptor (P35462 whole entry): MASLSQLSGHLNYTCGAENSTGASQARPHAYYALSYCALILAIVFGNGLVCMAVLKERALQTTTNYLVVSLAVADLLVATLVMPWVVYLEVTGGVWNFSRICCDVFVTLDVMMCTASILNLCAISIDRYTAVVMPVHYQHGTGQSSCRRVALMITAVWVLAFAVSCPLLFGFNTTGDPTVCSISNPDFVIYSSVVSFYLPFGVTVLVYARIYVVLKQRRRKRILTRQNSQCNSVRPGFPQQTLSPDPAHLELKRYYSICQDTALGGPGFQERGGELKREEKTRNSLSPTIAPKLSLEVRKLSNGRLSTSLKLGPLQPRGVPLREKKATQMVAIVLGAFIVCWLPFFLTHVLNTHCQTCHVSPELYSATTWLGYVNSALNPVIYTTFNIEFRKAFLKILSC

Prothrombin = Prothrombin (Homo sapiens, UniProt P00734); format: functional
Histamine H3 receptor = Histamine H3 receptor (Homo sapiens, UniProt Q9Y5N1)
Sequence of Histamine H3 receptor (Q9Y5N1 whole entry): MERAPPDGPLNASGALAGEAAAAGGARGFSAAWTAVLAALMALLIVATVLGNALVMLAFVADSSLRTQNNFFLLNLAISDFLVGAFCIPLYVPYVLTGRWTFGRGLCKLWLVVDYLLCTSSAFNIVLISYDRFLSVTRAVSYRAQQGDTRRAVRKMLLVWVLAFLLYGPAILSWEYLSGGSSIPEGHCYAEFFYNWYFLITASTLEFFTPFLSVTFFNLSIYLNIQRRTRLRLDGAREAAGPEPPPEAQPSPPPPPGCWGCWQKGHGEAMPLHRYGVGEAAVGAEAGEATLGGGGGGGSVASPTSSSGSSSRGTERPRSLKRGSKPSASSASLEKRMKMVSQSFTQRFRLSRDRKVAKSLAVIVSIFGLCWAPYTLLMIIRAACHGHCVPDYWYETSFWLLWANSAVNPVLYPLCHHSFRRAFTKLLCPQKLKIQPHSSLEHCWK

[2] = target: 5-hydroxytryptamine receptor 2B (Homo sapiens, UniProt P41595); format: functional, cell-based
[3] = target: Voltage-gated inwardly rectifying potassium channel KCNH2 (Homo sapiens, UniProt Q12809); format: functional; details: read-out: AC50
Sequence of Voltage-gated inwardly rectifying potassium channel KCNH2 (Q12809 whole entry): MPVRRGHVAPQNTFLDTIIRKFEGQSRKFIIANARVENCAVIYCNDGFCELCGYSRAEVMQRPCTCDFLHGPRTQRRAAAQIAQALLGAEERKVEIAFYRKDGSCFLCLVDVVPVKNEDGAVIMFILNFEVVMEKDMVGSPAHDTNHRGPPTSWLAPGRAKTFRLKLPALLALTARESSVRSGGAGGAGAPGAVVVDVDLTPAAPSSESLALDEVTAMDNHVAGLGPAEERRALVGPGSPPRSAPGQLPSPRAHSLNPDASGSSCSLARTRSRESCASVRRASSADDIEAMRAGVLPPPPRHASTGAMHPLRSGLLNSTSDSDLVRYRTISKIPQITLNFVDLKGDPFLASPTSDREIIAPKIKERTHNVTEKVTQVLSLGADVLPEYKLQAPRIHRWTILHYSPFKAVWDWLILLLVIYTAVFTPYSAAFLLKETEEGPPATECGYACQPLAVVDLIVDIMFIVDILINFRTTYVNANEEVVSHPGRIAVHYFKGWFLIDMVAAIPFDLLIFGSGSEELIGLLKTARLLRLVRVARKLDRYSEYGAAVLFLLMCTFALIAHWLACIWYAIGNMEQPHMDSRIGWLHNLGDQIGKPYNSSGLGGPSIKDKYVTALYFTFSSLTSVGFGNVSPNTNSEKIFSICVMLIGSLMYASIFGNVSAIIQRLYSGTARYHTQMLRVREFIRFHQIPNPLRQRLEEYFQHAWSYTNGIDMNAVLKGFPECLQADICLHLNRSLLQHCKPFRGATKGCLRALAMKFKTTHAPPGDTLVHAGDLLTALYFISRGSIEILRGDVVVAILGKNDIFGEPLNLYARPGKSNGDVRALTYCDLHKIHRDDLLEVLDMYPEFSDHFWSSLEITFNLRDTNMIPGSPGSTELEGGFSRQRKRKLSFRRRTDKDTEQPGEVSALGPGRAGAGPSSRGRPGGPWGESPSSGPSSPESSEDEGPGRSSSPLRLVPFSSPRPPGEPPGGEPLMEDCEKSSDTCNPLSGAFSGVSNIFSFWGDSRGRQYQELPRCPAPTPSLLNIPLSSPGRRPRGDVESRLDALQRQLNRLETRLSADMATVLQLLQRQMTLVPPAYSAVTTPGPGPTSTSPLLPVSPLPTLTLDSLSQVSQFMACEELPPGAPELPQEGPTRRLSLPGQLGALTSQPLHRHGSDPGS

Mu-type opioid receptor = Mu-type opioid receptor (Homo sapiens, UniProt P35372)
Sequence of Mu-type opioid receptor (P35372 whole entry): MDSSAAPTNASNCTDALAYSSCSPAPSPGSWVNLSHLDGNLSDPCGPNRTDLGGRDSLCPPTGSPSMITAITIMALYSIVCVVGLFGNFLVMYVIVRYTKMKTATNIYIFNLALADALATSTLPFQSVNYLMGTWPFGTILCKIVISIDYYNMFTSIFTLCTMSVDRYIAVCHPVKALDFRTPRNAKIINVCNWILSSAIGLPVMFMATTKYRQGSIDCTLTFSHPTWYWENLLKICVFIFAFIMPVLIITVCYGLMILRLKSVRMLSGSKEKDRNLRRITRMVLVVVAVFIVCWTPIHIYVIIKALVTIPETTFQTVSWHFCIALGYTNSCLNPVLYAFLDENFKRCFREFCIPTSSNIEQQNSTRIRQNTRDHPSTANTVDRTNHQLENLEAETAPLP

Progesterone receptor = target: T2, Progesterone receptor (Homo sapiens, UniProt P06401)
T2 sequence (P06401 whole entry): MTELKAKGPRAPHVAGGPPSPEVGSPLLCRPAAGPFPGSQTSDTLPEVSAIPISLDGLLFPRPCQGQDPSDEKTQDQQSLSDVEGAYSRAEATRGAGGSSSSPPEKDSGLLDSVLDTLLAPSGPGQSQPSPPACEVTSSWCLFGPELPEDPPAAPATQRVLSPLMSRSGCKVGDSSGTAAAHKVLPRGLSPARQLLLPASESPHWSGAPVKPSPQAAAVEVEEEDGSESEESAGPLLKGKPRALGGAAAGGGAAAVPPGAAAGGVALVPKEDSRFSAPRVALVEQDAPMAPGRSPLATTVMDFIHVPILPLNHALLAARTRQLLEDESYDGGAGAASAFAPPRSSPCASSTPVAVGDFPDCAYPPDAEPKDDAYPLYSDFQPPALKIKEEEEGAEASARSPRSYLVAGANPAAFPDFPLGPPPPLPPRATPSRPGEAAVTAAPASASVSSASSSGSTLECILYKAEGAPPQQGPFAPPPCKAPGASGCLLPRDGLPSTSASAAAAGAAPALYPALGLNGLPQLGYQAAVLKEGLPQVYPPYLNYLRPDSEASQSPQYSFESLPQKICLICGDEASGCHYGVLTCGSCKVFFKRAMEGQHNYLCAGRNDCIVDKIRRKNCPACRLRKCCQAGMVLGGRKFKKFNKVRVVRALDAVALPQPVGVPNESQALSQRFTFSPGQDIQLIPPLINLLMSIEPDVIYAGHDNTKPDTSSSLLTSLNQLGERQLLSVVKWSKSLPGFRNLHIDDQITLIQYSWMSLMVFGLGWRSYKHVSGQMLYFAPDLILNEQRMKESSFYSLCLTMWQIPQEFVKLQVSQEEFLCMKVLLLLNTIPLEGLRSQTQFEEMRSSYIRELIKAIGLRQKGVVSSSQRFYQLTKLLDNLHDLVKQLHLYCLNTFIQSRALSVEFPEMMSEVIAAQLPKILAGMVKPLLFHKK

[4] = target: T3, Prostaglandin G/H synthase 1 (Homo sapiens, UniProt P23219); format: functional
[5] = target: T3, Prostaglandin G/H synthase 1; format: functional; remark: listed apart in the source
[6] = target: Sodium-dependent dopamine transporter (Homo sapiens, UniProt Q01959)
Sequence of Sodium-dependent dopamine transporter (Q01959 whole entry): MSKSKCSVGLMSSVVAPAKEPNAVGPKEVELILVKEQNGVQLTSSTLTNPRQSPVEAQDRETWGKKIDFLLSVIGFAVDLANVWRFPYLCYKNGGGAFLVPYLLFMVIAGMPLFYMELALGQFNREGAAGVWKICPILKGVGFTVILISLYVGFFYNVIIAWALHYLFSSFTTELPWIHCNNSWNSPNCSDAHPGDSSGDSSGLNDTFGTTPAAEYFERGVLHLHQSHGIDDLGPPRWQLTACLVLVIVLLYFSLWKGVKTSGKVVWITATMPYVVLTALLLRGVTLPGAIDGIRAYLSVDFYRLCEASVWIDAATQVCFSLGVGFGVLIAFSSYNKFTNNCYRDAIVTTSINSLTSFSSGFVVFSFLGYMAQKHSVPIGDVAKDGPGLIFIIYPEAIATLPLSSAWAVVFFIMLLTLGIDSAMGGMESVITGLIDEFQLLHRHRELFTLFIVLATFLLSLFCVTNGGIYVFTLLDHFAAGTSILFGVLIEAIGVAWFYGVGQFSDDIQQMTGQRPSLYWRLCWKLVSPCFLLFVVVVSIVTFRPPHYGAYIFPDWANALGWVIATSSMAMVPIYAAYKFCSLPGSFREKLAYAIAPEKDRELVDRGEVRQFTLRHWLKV

[7] = target: Sodium-dependent serotonin transporter (Homo sapiens, UniProt P31645)
Sequence of Sodium-dependent serotonin transporter (P31645 whole entry): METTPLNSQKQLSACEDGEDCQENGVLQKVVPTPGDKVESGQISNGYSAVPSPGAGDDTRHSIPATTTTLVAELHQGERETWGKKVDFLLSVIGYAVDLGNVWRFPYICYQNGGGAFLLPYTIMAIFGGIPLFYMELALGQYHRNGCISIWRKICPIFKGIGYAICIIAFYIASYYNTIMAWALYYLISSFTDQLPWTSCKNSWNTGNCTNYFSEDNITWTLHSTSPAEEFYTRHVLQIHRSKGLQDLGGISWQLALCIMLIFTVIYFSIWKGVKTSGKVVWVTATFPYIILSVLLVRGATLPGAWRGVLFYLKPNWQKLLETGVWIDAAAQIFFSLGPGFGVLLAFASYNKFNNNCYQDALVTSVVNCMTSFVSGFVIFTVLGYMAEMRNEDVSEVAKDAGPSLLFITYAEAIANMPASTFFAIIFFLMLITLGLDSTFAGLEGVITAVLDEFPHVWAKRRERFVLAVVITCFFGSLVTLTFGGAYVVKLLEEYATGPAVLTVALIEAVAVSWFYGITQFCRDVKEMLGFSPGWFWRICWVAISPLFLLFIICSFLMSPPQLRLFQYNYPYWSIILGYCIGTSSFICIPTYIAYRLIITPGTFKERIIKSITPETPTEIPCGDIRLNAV

Thromboxane A2 receptor [8] = target: T4, Thromboxane A2 receptor (Homo sapiens, UniProt P21731); format: functional, cell-based
T4 sequence (P21731 whole entry): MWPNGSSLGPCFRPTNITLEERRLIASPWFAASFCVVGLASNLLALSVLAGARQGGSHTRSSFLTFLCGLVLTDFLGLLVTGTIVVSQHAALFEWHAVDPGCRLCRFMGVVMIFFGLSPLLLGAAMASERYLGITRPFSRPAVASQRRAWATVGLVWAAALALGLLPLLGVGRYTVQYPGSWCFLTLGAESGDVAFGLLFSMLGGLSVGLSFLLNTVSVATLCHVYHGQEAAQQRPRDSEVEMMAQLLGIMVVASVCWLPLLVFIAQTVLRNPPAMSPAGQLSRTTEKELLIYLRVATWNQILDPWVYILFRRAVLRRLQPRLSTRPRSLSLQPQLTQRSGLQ

Thromboxane A2 receptor [9] = target: T4, Thromboxane A2 receptor; format: functional, cell-based; remark: listed apart in the source
Adenosine receptor A3 = target: T5, Adenosine receptor A3 (Homo sapiens, UniProt P0DMS8)
T5 sequence (P0DMS8 whole entry): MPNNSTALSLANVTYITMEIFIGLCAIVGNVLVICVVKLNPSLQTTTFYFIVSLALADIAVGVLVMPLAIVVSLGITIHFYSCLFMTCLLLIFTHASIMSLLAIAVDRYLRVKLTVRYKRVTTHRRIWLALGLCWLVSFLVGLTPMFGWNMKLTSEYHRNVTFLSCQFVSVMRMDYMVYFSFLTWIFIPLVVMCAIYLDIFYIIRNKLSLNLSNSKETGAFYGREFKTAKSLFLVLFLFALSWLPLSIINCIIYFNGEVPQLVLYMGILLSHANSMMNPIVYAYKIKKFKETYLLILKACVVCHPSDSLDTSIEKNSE
Further: assay procedure not described here.

Sequence of Acetylcholinesterase (P22303 whole entry): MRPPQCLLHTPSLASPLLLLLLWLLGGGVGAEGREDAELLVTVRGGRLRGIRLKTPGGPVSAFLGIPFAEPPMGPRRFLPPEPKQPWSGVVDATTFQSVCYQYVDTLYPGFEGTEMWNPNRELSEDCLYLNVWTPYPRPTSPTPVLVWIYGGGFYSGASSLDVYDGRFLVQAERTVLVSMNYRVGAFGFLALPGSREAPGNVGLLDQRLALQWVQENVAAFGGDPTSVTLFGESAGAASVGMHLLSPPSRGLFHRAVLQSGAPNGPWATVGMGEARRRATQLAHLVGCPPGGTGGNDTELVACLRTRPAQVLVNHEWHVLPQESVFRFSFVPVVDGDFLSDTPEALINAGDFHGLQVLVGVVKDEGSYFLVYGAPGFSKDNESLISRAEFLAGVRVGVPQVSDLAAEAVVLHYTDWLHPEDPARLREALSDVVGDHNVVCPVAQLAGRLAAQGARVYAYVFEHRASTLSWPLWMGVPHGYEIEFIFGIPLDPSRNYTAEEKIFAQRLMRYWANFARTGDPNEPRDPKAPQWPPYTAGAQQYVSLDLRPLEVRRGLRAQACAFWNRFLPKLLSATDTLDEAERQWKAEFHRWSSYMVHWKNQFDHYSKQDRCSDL

Row | SMILES | AC50 (Acetylcholinesterase) | AC50 [1] | AC50 (D(1A) dopamine receptor) | AC50 (D(3) dopamine receptor) | AC50 (Prothrombin) | AC50 (Histamine H3 receptor) | AC50 [2] | AC50 [3] | AC50 (Mu-type opioid receptor) | AC50 (Progesterone receptor) | AC50 [4] | AC50 [5] | AC50 [6] | AC50 [7] | AC50 (Thromboxane A2 receptor [8]) | AC50 (Thromboxane A2 receptor [9]) | AC50 (Adenosine receptor A3)
1 | CCOC(=O)CC(SP(=S)(OC)OC)C(=O)OCC (stereo not given) [MALATHION] | > 30 µM | > 30 µM | > 30 µM | > 30 µM | > 30 µM | > 30 µM | > 30 µM | > 30 µM | > 30 µM | > 30 µM | > 30 µM | > 30 µM | > 30 µM | > 30 µM | > 30 µM | > 30 µM | 
2 | COc1ccc2c(c1)OC(C)(C)C(c1ccccc1)C2c1ccc(OCCN2CCCC2)cc1 (stereo not given) [ORMELOXIFENE] | > 30 µM |  | 6.98 µM | 0.205 µM | > 30 µM | 0.785 µM | > 30 µM | 2.7 µM | 11.2 µM | 3.57 µM | 3.31 µM | 4.3 µM | 3 µM | 13.2 µM | > 30 µM | 12.2 µM | 3.66 µM
3 | CCO[C@@H](Cc1ccc(OCCn2c(C)ccc2-c2ccc(SC)cc2)cc1)C(=O)O [SAROGLITAZAR] | > 30 µM |  | > 30 µM | 22.2 µM | > 30 µM | > 30 µM | > 30 µM | > 30 µM | > 30 µM | 8.57 µM | 9.49 µM | > 30 µM | > 30 µM | > 30 µM | 16.4 µM |  | 14.9 µM
4 | CCS(=O)(=O)N1CC(CC#N)(n2cc(-c3ncnc4[nH]ccc34)cn2)C1 [BARICITINIB] | > 10 µM | > 10 µM | > 30 µM | > 30 µM | > 30 µM | > 30 µM | > 30 µM |  | > 30 µM | > 30 µM | > 30 µM | > 30 µM | > 30 µM | > 30 µM | > 30 µM | > 10 µM | 
5 | COc1cc(NCc2ccc3nc(N)nc(N)c3c2C)cc(OC)c1OC [TRIMETREXATE] | 1.62 µM | > 30 µM | 1.94 µM | 2.67 µM | > 30 µM | > 30 µM | > 30 µM | 2.16 µM | 1.2 µM | > 30 µM | 28.1 µM | 2.4 µM | 9.54 µM | > 30 µM | > 30 µM | > 30 µM | 
6 | O=C(O)CCn1c2c(c3ccccc31)C[C@H](NS(=O)(=O)c1ccc(F)cc1)CC2 [RAMATROBAN] | > 30 µM | > 30 µM | > 30 µM | > 30 µM | > 30 µM | > 30 µM | > 30 µM | > 30 µM | > 30 µM | > 30 µM | > 30 µM | > 30 µM | > 30 µM | > 30 µM | > 30 µM | 0.04 µM | 
7 | NC(=O)c1cccc2cn(-c3ccc([C@@H]4CCCNC4)cc3)nc12 [NIRAPARIB] | > 30 µM | > 30 µM | > 30 µM | > 30 µM | > 30 µM | 26 µM | > 30 µM | > 30 µM | > 30 µM | > 30 µM | > 30 µM | > 30 µM | 0.113 µM | 1.17 µM | > 30 µM | > 30 µM | 
8 | NCc1ccccc1CC(=O)N[C@@H]1C(=O)N2C(C(=O)O)=C(CSc3nnnn3CC(=O)O)CS[C@H]12 [CEFORANIDE] | > 30 µM | > 30 µM | > 30 µM | > 30 µM | > 30 µM | > 10 µM | > 30 µM |  | > 30 µM | > 30 µM | > 30 µM | > 30 µM | > 30 µM | > 30 µM | > 30 µM | > 30 µM | 
